Assay results as given in patent US7390831B2, “Tetracyclic steroid derivatives useful as progesterone receptor modulators” (Janssen Pharmaceutica N.V., priority 2006, dated 2008).
Where two headings read alike, the source gives them in different places.

Tests used:
[1] = system: A549 Human lung carcinoma cells; experiment: A549 Human Lung Cell Assay (transfected cells, dexamethasone challenge, luciferase read-out); type: cell-based; conditions: Homo sapiens, A549, A549 cells, test compound 10 min then dexamethasone challenge, 24 h, Luc-assay; read-out: A 549 IC50
Procedure: A549Human Lung Cell Assay
A549Human lung carcinoma cells were grown in F-12K Nutrient Mixture containing 10% (v/v) fetal bovine serum (FBS; Invitrogen), 2 mM glutamine and 0.15% sodium dicarbonate (Invitrogen).
A549 cells were split 1 to 3 in 175 cm tissue culture flask. The cells were incubated at 37° C. in CO2 incubator until the cells were 95% confluent (typically 24-30 hours).
The following solutions were prepared in sterile tubes: (a) Solution A 1.5 μg/ml of DNA in 8.5 ml OPTI-MEM I Reduced Serum Medium. (GIBCO cat# 31985) and (b) Solution B: 6 μl/ml of DMRIE-C Reagent into […] OPTI-MEM I. The two solutions were combined and mixed gently, then incubated at room temperature for 40 minutes.
The A549 cells prepared above were washed with […] of OPTI-MEM I. The medium was removed and 17 ml of the lipid-DNA complex solution was overlayed onto cells. The cells ere then incubated for 16 h at 37° C. in CO2 incubator. The DNA-containing medium was removed and 30 ml of growth medium was added. (5% Charcoal treated FBS) After 5-6 h, the cells were seeded in a 96 well plate and the cells incubated overnight at 37° C. in CO2 incubator.
To each well was then added 5 μl of test compounds and the cells incubated at 37° C. for 10 min. 5 μL of dexamathasone (CAS [50-02-2]), was then added to each well for challenger and the cells incubated at 37° C. in CO2 incubator for 24 h. 100 μl of Luc-assay buffer was then added into each cell well and the cells incubated for 30 min at room temperature. A 150 μL sample from each well was then transferred into a DYNEX Microlitel plate and read on Top-counter.
(§1) Representative compounds of the present invention were tested according to the procedures described in Examples 45 and 46 above, with results as listed in Table 2 below.

[2] = system: T47D human breast cancer cells; experiment: T47D Human Breast Cancer Cells Assay (alkaline phosphatase, luminescence); type: cell-based
Procedure: T47D Human Breast Cancer Cells Assay
T47D human breast cancer cells were grown in RPMI medium without phenol red (Invitrogen) containing 10% (v/v) heat-inactivated fetal bovine serum (FBS; Hyclone), 1% (v/v) penicillin-streptomycin (Invitrogen), 1% (w/v) glutamine (Invitrogen), and […] insulin (Sigma). Incubation conditions were 37° C. in a humidified 5% (v/v) carbon dioxide environment.
The cells were plated in 96-well tissue culture plates at 10,000 cells per well in assay medium [RPMI medium without phenol red (Invitrogen) containing 5% (v/v) charcoal-treated FBS (Hyclone) and 1% (v/v) penicillin-streptomycin (Invitrogen)]. Two days later, the medium was decanted and test compound or control were added at a final concentration of 0.1% (v/v) dimethyl sulfoxide in fresh assay medium. Twenty-four hours later, an alkaline phosphatase assay was performed using a SEAP kit (BD Biosciences Clontech, Palo Alto, Calif.). Briefly, the medium was decanted and the cells were fixed for 30 minutes at room temperature with 5% (v/v) formalin (Sigma). The cells were washed once with room temperature Hank's buffered saline solution (Invitrogen). Equal volumes (0.05 mL) of 1× Dilution Buffer, Assay Buffer and 1:20 substrate/enhancer mixture were then added. After 1 hour incubation at room temperature in the dark, the lysate was transferred to a white 96-well plate (Dynex) and luminescence was read using a LuminoSkan Ascent (Thermo Electron, Woburn, Mass.).
as §1

[3] = Homo sapiens, T47D, 24 h, read-out: T47D IC50 (nM), T47D cells, 24 h with test compound, alkaline phosphatase assay (SEAP kit)

SMILES | IC50 [1] [nM] | IC50 [2, 3] [nM] | IC50 ([2]; read-out: T47D IC50, T47D cells, 24 h with test compound, alkaline phosphatase assay (SEAP kit)) [nM]
COc1ccc([C@@H]2OC[C@@]3(C)C(CC[C@@]3(O)C#Cc3ccc(C(F)(F)F)cc3)C3CCC4=CC(=O)CCC4=C32)cc1 (some centres unmarked) [Compound 22, 1-Hydroxy-10-(4-methoxy-phenyl)-12a-methyl-1-(4-trifluoromethylphenylethynyl)-2,3,3a,3b,4,5,9,10,12,12a-decahydro-1H,8H-11-oxa-naphtho[2,1-e]azulen-7-one] | > 3000 | > 1000 | –
C=C(CCO)[C@]1(O)CCC2C3CCC4=CC(=O)CCC4=C3[C@@H](c3ccc(OC)cc3)OC[C@@]21C (some centres unmarked) [Compound 24] | 771 | 176 | 130
